How the values were obtained:
[1] = molecular target: T1, SAP (saporin L3) (Saponaria officinalis, UniProt Q2QEH4); assay: Competitive inhibition of saporin L3 with stem-loop RNA A10; type: biochemical
[2] = test system: Saporin L3 (SAP); type: biochemical, Saponaria officinalus
[3] = test system: SAP and SAP-A14C; assay: Inhibition of SAP hydrolysis of yeast tRNA and rabbit rRNA; type: biochemical, Saponaria officinalus; conditions: rabbit 80S ribosome 100 nM or yeast tRNA 1.0 mg/mL; 10 min preincubation
[4] = molecular target: T1, SAP (saporin L3); assay: Ki* quoted in Table 1 from ref 19; type: biochemical; conditions: read-out: Inhibition constant Ki* (nM), value taken from Schramm et al. [19]; cited from earlier work

T1 sequence (Q2QEH4 22-280 limits assumed): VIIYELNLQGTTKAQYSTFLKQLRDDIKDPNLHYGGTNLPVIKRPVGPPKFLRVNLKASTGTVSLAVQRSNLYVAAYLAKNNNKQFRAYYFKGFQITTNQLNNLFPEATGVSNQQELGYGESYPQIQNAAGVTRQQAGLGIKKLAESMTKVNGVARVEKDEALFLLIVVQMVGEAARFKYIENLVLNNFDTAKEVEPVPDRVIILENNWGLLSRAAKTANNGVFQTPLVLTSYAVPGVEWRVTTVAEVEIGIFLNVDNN

Molecule: CO[C@@H]1[C@H](O)[C@@H](COP(=O)(O)O[C@H]2CN(Cc3c[nH]c4c(N)ncnc34)C[C@@H]2COP(=O)(O)O[C@H]2[C@@H](OC)[C@H](n3cnc4c(=O)[nH]c(N)nc43)O[C@@H]2CO)O[C@H]1n1cnc2c(=O)[nH]c(N)nc21 [compound 32, GpDIApG (2'-O-methyl guanosines)]
- Ki [1]: 0.033 ± 0.0017 µM

Molecule: GpGpDIApPD [Compound 41]
- inhibition of SAP (in words) [2]: weak inhibitors

Molecule: PDpApGpPD [reference compound]
- Ki ([2]; RNA A10 substrate, slow-onset dissociation constant): 16.1 µM

Molecule: PDpDIApGpPD [Compound 2]
- inhibition of hydrolysis of yeast tRNA and rabbit rRNA by SAP and SAP-A14C [3]: inhibits

Molecule: PDpGpDIApPD [Compound 39]
- inhibition of SAP (in words) [2]: weak inhibitors

Molecule: PDpHomoSerpGpPD [Compound 52]
- inhibition of SAP (in words) [2]: good inhibitors

Molecule: catalytically inactive substrate analogue PDpApGpPD (adenosine in place of DIA; PD = propanediol)
- Ki ([1]; read-out: Inhibition constant Ki*): 16 µM

Molecule: serinol analogue of PDpDIApGpPD (Ser = serinol; PD = propanediol) [PDpSerpGpPD]
- Ki [4]: 43.2 ± 1.1 nM

Source: PMC5296225 (European journal of medicinal chemistry, 2016)
